Read-outs that look alike come from different tables or passages of the source.
Test system: laminitis
Assay type: in vivo, horse

Follow-up examination: outcome of pregnancy (in vivo): normal birth of a healthy foal
Compound: CC(=O)Oc1cc2c(s1)CCN(C(C(=O)C1CC1)c1ccccc1F)C2 (stereo not drawn) [Prasugrel]
Therapy progress (Example 1: 8 year old Shetty-gelding, acute attack, initial 20 mg Prasugrel + 1000 mg acetylsalicylic acid per 60 kg, then 10 mg + 500 mg per 60 kg twice a day, change in feeding, day 2): distinct pulsation in all 4 legs; the horse is more interested in its surrounding
Therapy progress (Example 1: Shetty-gelding, Prasugrel in combination with acetylsalicylic acid, day 3): pulsation in the front legs less, in the back legs the same; horse comes when it is called
1. Follow-up examination (Example 1: Shetty-gelding, Prasugrel in combination with acetylsalicylic acid, day 4): day 4: pulsation in all 4 legs; horse walks with medium grade turning pain.
2. Follow-up examination: signs of laminitis (Example 1: Shetty-gelding, Prasugrel in combination with acetylsalicylic acid, day 6): no signs of laminitis
2. Follow-up examination: hoof ulcers (Example 1: Shetty-gelding, Prasugrel in combination with acetylsalicylic acid, day 8): no hoof ulcers observable
2. Follow-up examination: recurrence of laminitis (Example 1: Shetty-gelding, after stop of treatment on day 10, change of feeding kept): no more laminitis occurred
Therapy progress (Example 2: 8 year old Shetty-mare, per 60 kg 10 mg Prasugrel + 500 mg acetylsalicylic acid twice a day, change in feeding, from day 3 on): light amelioration
Therapy progress: pulsation (Example 2: Shetty-mare, Prasugrel in combination with acetylsalicylic acid, from day 7 on): no pulsation anymore sensible
Therapy progress: pulsation (Example 2: Shetty-mare, Prasugrel in combination with acetylsalicylic acid, until day 5): pulsation clearly sensible
Follow-up examination (Example 2: Shetty-mare, 1 month later (treatment stopped on day 14)): no pulsation; attitude without pathological findings
Therapy progress (Example 3: 12 year old Pony-gelding, 10 mg Prasugrel + 500 mg acetylsalicylic acid per 60 kg twice a day, change in feeding, from day 2 on): light amelioration
Therapy progress: movement (Example 3: Pony-gelding, Prasugrel in combination with acetylsalicylic acid, day 6): pony walks still restrained
Therapy progress: movement (Example 3: Pony-gelding, Prasugrel in combination with acetylsalicylic acid, day 10): unlimited movement
Therapy progress: pulsation (Example 3: Pony-gelding, Prasugrel in combination with acetylsalicylic acid, from day 4 on): no pulsation anymore sensible
Therapy progress (Example 4: 8 year old Shetty-gelding, acute attack, 10 mg Prasugrel + 500 mg acetylsalicylic acid per 60 kg twice a day, change in feeding, day 3): pony standing in bran, but still heavy pain on all 4 legs
Therapy progress (Example 4: Shetty-gelding, Prasugrel in combination with acetylsalicylic acid, day 5): clear amelioration of its attitude; less pulsation
Therapy progress: pulsation (Example 4: Shetty-gelding, Prasugrel in combination with acetylsalicylic acid, from day 10 on): no pulsation sensible anymore

Reference: patent EP2497475A1, “Treatment of laminitis with platelet aggregation inhibitors” (priority 2011, dated 2012)
